Measurements from patent US10780090B2, “Heteroaryl compounds useful as inhibitors of SUMO activating enzyme” (Millennium Pharmaceuticals, Inc., priority 2014, dated 2020).

Biological target: recombinant human SAE enzyme (Homo sapiens (Human), UniProt Q9UBT2)
Experiment: SAE HTRF enzyme assay
Assay type: biochemical
Conditions: for inhibition at 0.111 µM: read-out: Percent Inhibition
Summary of the method: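 HTRF read-out using Eu-cryptate anti-Flag and allophycocyanin anti-GST antibodies, added with EDTA stop buffer and read after 2 h at 24 °C. The preceding reaction ran 105 min at 24 °C: 0.11 nM recombinant SAE, 0.5 μM ATP, Sumo-Flag, Ubc9-GST, pH 7.5. Values given as single-concentration inhibition or IC50.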

[1] = SAE inhibition at compound concentration 0.111 μM
[2] = SAE inhibition, class symbols, legend in nM

Chain of recombinant human SAE enzyme (Q9UBT2 whole entry): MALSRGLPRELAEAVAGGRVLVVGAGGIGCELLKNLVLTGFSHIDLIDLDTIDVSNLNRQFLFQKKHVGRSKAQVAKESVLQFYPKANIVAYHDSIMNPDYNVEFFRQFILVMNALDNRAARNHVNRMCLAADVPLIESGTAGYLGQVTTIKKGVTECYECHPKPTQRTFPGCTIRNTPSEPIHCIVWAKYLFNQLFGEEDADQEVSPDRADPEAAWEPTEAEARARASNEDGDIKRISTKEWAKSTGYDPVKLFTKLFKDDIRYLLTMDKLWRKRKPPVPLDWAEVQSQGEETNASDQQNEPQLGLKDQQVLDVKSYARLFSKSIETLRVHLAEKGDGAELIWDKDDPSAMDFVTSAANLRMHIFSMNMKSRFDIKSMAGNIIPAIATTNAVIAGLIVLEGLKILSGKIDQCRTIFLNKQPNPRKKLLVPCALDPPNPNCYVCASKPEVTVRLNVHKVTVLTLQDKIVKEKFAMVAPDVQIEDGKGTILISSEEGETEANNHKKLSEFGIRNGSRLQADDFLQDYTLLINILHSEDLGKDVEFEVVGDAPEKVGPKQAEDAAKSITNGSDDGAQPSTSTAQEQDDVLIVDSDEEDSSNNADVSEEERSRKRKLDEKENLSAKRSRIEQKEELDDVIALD
Chain of recombinant human SAE enzyme (Q9UBE0 whole entry partner): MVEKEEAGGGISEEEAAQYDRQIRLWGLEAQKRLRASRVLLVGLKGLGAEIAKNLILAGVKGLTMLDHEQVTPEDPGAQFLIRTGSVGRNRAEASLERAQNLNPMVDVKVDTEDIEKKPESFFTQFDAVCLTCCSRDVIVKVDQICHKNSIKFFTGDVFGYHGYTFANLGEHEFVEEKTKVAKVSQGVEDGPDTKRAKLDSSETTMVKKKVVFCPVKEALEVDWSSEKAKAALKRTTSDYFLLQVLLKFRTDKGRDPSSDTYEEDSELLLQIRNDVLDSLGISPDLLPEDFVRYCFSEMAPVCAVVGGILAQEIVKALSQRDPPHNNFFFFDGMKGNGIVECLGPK

SMILES	Percent Inhibition (Concentration 0.111 μM)	IC50 (class symbols A/B/C) [nM]	Percent Inhibition [1] [%]	IC50 [2] [nM]	inhibition at 0.111 µM (Concentration 0.111 μM) [%]
Cc1sc(C(=O)c2cncnc2N[C@@H]2C[C@H](COS(N)(=O)=O)[C@@H](O)C2)cc1[C@H]1NCCc2ccc(Br)cc21 (single isomer, unassigned) [I-248a, [(1R,2S,4R)-4-{[5-({4-[(1S)-7-bromo-1,2,3,4-tetrahydroisoquinolin-1-yl]-5-methyl-2-thienyl}carbonyl)pyrimidin-4-yl]amino}-2-hydroxycyclopentyl]methyl sulfamate or [(1R,2S,4R)-4-{([5-({4-[(1R)-7-bromo-1,2,3,4-tetrahydroisoquinolin-1-yl]-5-methyl-2-thienyl}carbonyl)pyrimidin-4-yl]amino}-2-hydroxycyclopentyl]methyl sulfamate]	99	< 10	–	–	–
NS(=O)(=O)OCC1CC(Nc2ncncc2C(=O)c2cc(C(O)c3cccc(Br)c3)cs2)CC1O (mixture of isomers) [I-17, [(1R,2S,4R)-4-{[5-({4-[(R)-(3-bromophenyl)(hydroxy)methyl]-2-thienyl}carbonyl)pyrimidin-4-yl]amino}-2-hydroxycyclopentyl]methyl sulfamate and [(1R,2S,4R)-4-{[5-({4-[(S)-(3-bromophenyl)(hydroxy)methyl]-2-thienyl}carbonyl)pyrimidin-4-yl]amino}-2-hydroxycyclopentyl]methyl sulfamate]	99	< 10	–	–	–
Cc1ccc2c(n1)C(c1cc(C(=O)c3cncnc3N[C@@H]3C[C@H](COS(N)(=O)=O)[C@@H](O)C3)sc1C)OCC2 (single isomer, unassigned) [I-291b, [(1R,2S,4R)-2-hydroxy-4-{[5-({5-methyl-4-[(8S)-2-methyl-5,8-dihydro-6H-pyrano[3,4-b]pyridin-8-yl]-2-thienyl}carbonyl)pyrimidin-4-yl]amino}cyclopentyl]methyl sulfamate or [(1R,2S,4R)-2-hydroxy-4-{[5-({5-methyl-4-[(8R)-2-methyl-5,8-dihydro-6H-pyrano[3,4-b]pyridin-8-yl]-2-thienyl}carbonyl)pyrimidin-4-yl]amino}cyclopentyl]methyl sulfamate]	–	–	99	< 10	–
NS(=O)(=O)OC[C@H]1C[C@@H](Nc2ncncc2C(=O)c2ccc([C@@H]3OCCc4c(Cl)cccc43)s2)C[C@@H]1O (mixture of isomers) [I-325, [(1R,2S,4R)-4-{[5-({5-[(1R)-5-chloro-3,4-dihydro-1H-isochromen-1-yl]-2-thienyl}carbonyl)pyrimidin-4-yl]amino}-2-hydroxycyclopentyl]methyl sulfamate and [(1R,2S,4R)-4-{[5-({5-[(1S)-5-chloro-3,4-dihydro-1H-isochromen-1-yl]-2-thienyl}carbonyl)pyrimidin-4-yl]amino}-2-hydroxycyclopentyl]methyl sulfamate]	–	–	60	10 to 100	–
NS(=O)(=O)OC[C@H]1C[C@@H](Nc2ncncc2C(=O)c2cc(Cc3cccc(Cl)c3)c(CC3CCOCC3)s2)C[C@@H]1O [I-110, {(1R,2S,4R)-4-[(5-{[4-(3-chlorobenzyl)-5-(tetrahydro-2H-pyran-4-ylmethyl)-2-thienyl]carbonyl}pyrimidin-4-yl)amino]-2-hydroxycyclopentyl}methyl sulfamate]	–	< 10	–	–	98
NS(=O)(=O)OC[C@H]1C[C@@H](Nc2ncncc2C(=O)c2cc([C@@H]3CCCc4ccc(Cl)cc43)cs2)C[C@@H]1O (single isomer, unassigned) [I-335a, [(1R,2S,4R)-4-{[5-({4-[(1R)-7-chloro-1,2,3,4-tetrahydronaphthalen-1-yl]-2-thienyl}carbonyl)pyrimidin-4-yl]amino}-2-hydroxycyclopentyl]methyl sulfamate or [(1R,2S,4R)-4-{[5-({4-[(1S)-7-chloro-1,2,3,4-tetrahydronaphthalen-1-yl]-2-thienyl}carbonyl)pyrimidin-4-yl]amino}-2-hydroxycyclopentyl]methyl sulfamate]	–	–	14	100 to 1000	–
C[C@](O)(c1csc(C(=O)c2cncnc2N[C@@H]2C[C@H](COS(N)(=O)=O)[C@@H](O)[C@H]2O)c1)c1cccc(Br)n1 (mixture of isomers) [I-1, [(1R,2R,3S,4R)-4-{[5-({4-[(1S)-1-(6-bromopyridin-2-yl)-1-hydroxyethyl]-2-thienyl}carbonyl)pyrimidin-4-yl]amino}-2,3-dihydroxycyclopentyl]methyl sulfamate and [(1R,2R,3S,4R)-4-({[5-({4-[(1R)-1-(6-bromopyridin-2-yl)-1-hydroxyethyl]-2-thienyl}carbonyl)pyrimidin-4-yl]amino}-2,3-dihydroxycyclopentyl]methyl sulfamate]	99	< 10	–	–	–
Cc1sc(C(=O)c2cncnc2N[C@@H]2C[C@H](COS(N)(=O)=O)[C@@H](O)C2)cc1[C@H]1OCCc2ccc(Cl)cc21 [I-257a, [(1R,2S,4R)-4-{[5-({4-[(1S)-7-chloro-3,4-dihydro-1H-isochromen-1-yl]-5-methyl-2-thienyl}carbonyl)pyrimidin-4-yl]amino}-2-hydroxycyclopentyl]methyl sulfamate]	–	10 to 100	–	–	74
CN[C@H](c1cccc(Cl)c1)c1csc(C(=O)c2cncnc2N[C@@H]2C[C@H](COS(N)(=O)=O)[C@@H](O)C2)c1 (single isomer, unassigned) [I-47a, [(1R,2S,4R)-4-{[5-({4-[(R)-(3-chlorophenyl)(methylamino)methyl]-2-thienyl}carbonyl)pyrimidin-4-yl]amino}-2-hydroxycyclopentyl]methyl sulfamate or [(1R,2S,4R)-4-{[5-({4-[(S)-(3-chlorophenyl)(methylamino)methyl]-2-thienyl}carbonyl)pyrimidin-4-yl]amino}-2-hydroxycyclopentyl]methyl sulfamate]	99	< 10	–	–	–
NS(=O)(=O)OC[C@H]1C[C@@H](Nc2ncncc2C(=O)c2cc([C@H](O)c3cc(Br)ccc3F)cs2)C[C@@H]1O (single isomer, unassigned) [I-19a, [(1R,2S,4R)-4-{[5-({4-[(R)-(5-bromo-2-fluorophenyl)(hydroxy)methyl]-2-thienyl}carbonyl)pyrimidin-4-yl]amino}-2-hydroxycyclopentyl]methyl sulfamate or [(1R,2S,4R)-4-{[5-({4-[(S)-(5-bromo-2-fluorophenyl)(hydroxy)methyl]-2-thienyl}carbonyl)pyrimidin-4-yl]amino}-2-hydroxycyclopentyl]methyl sulfamate]	98	< 10	–	–	–
Cc1sc(C(=O)c2cncnc2N[C@@H]2C[C@H](COS(N)(=O)=O)[C@@H](O)C2)cc1[S@+]([O-])c1cccc(Cl)c1 (single isomer, unassigned) [I-28b, [(1R,2S,4R)-4-{[5-({4-[(R)-(3-chlorophenyl)sulfinyl]-5-methyl-2-thienyl}carbonyl)pyrimidin-4-yl]amino}-2-hydroxycyclopentyl]methyl sulfamate or [(1R,2S,4R)-4-{[5-({4-[(S)-(3-chlorophenyl)sulfinyl]-5-methyl-2-thienyl}carbonyl)pyrimidin-4-yl]amino}-2-hydroxycyclopentyl]methyl sulfamate]	100	< 10	–	–	–
Cc1sc(C(=O)c2cncnc2N[C@@H]2C[C@H](COS(N)(=O)=O)[C@@H](O)C2)cc1[C@@H]1OCCn2c(C)cnc21 (mixture of isomers) [I-296, [(1R,2S,4R)-2-hydroxy-4-{[5-({5-methyl-4-[(8S)-3-methyl-5,6-dihydro-8H-imidazo[2,1-c][1,4]oxazin-8-yl]-2-thienyl}carbonyl)pyrimidin-4-yl]amino}cyclopentyl]methyl sulfamate and [(1R,2S,4R)-2-hydroxy-4-{[5-({5-methyl-4-[(8R)-3-methyl-5,6-dihydro-8H-imidazo[2,1-c][1,4]oxazin-8-yl]-2-thienyl}carbonyl)pyrimidin-4-yl]amino}cyclopentyl]methyl sulfamate]	–	–	98	< 10	–
Cc1sc(C(=O)c2cncnc2N[C@@H]2C[C@H](COS(N)(=O)=O)[C@@H](O)C2)cc1Sc1cccc(Cl)c1 [I-143, [(1R,2S,4R)-4-{[5-({4-[(3-chlorophenyl)sulfanyl]-5-methyl-2-thienyl}carbonyl)pyrimidin-4-yl]amino}-2-hydroxycyclopentyl]methyl sulfamate]	–	< 10	–	–	94
N[C@@H](c1cccc(Br)n1)c1cc(C(=O)c2cncnc2N[C@@H]2C[C@H](COS(N)(=O)=O)[C@@H](O)C2)sc1Cl (single isomer, unassigned) [I-18b, [(1R,2S,4R)-4-{[5-({4-[(R)-amino(6-bromopyridin-2-yl)methyl]-5-chloro-2-thienyl}carbonyl)pyrimidin-4-yl]amino}-2-hydroxycyclopentyl]methyl sulfamate or [(1R,2S,4R)-4-{[5-({4-[(S)-amino(6-bromopyridin-2-yl)methyl]-5-chloro-2-thienyl}carbonyl)pyrimidin-4-yl]amino}-2-hydroxycyclopentyl]methyl sulfamate]	99	< 10	–	–	–
NS(=O)(=O)OC[C@H]1C[C@@H](Nc2ncncc2C(=O)c2cc(CCc3ccccc3)cs2)C[C@@H]1O [I-108, {(1R,2S,4R)-2-Hydroxy-4-[(5-{[4-(2-phenylethyl)-2-thenyl]carbonyl}pyrimidin-4-yl)amino]cyclopentyl}methyl sulfamate]	–	–	–	–	96
Cc1oc(C(=O)c2cncnc2N[C@@H]2C[C@H](COS(N)(=O)=O)[C@@H](O)C2)cc1[C@@H]1OCCc2ccc(Cl)cc21 (single isomer, unassigned) [I-270a, {(1R,2S,4R)-4-[(5-{4-[(1R)-7-chloro-3,4-dihydro-1H-isochromen-1-yl]-5-methyl-2-furoyl}pyrimidin-4-yl)amino]-2-hydroxycyclopentyl}methyl sulfamate or {(1R,2S,4R)-4-[(5-{4-[(1S)-7-chloro-3,4-dihydro-1H-isochromen-1-yl]-5-methyl-2-furoyl}pyrimidin-4-yl)amino]-2-hydroxycyclopentyl}methyl sulfamate]	79	10 to 100	–	–	–
